Source: article doi:10.1101/2023.08.31.555663, “Computational exploration of the global microbiome for antibiotic discovery” (bioRxiv, 2023)
Where a SMILES comes first, the peptide text is derived from it. Bridges are numbered along the chain shown (N, C = ends). [ ]: non-standard residue; d: D form. The star is where a group is joined. X1 = CC[C@H](C)CCCCC(=O)*; Dab = NCC[C@H](N)C(=O)O

Assays:
[1] = test system: Acinetobacter baumannii ATCC 19606; conditions: broth microdilution, LB broth, 24 h at 37 °C, two-fold dilutions 64 to 1 μmol·L^−1, absorbance 600 nm, mode of three independent replicates
Protocol: Amino acid composition, structure, antimicrobial activity, and mechanism of action of c_AMPs. […] (AC) Activity of c_AMPs assessed against ESKAPEE pathogens and human gut commensal strains. Briefly, 10^6 CFU·mL^−1 was exposed to c_AMPs two-fold serially diluted ranging from 64 to 1 μmol·L^−1 in 96-wells plates and incubated at 37 °C for one day. After the exposure period, the absorbance of each well was measured at 600 nm. Untreated solutions were used as controls and minimal concentration values for complete inhibition were presented as a heat map of antimicrobial activities (μmol·L^−1) against 11 pathogenic and eight human gut commensal bacterial strains.

A. baumannii ATCC 19606 = assay: Skin abscess infection mouse model; assay type: in vivo; conditions: CD-1 mice, n=3
Protocol: Figure 7. Anti-infective activity of AMPs in pre-clinical animal model. (A) Schematic of the skin abscess mouse model used to assess the anti-infective activity of the peptides against A. baumannii cells. (B) Peptides were tested at their MIC in a single dose one hour after the establishment of the infection. Each group consisted of three mice n=3 and the bacterial loads used to infect each mouse derived from a different inoculum. (C) To rule out toxic effects of the peptides, mouse weight was monitored throughout the experiment. Statistical significance in (B) was determined using one-way ANOVA where all groups were compared to the untreated control group; P-values are shown for each of the groups. Features on the violin plots represent median and upper and lower quartiles. Data in (C) are the mean ± the standard deviation. Figure created in BioRender.com. […]
To assess the anti-infective efficacy of the peptides against A. baumannii ATCC 19606 in a skin abscess infection mouse model, the bacteria were cultured in tryptic soy broth (TSB) medium until an OD600 of 0.5 was reached. […] The animals were euthanized two- and four-days post-infection, and the infected area was extracted and homogenized for 20 min using a bead beater (25 Hz) and 10-fold serially diluted for CFU quantification on MacConkey agar plates for easy differentiation of A. baumannii colonies. […]

Compound: CC[C@H](C)CCCCC(=O)N[C@@H](CCN)C(=O)N[C@H](C(=O)N[C@@H](CCN)C(=O)N[C@H]1CCNC(=O)[C@H]([C@@H](C)O)NC(=O)[C@H](CCN)NC(=O)[C@H](CCN)NC(=O)[C@H](CC(C)C)NC(=O)[C@@H](Cc2ccccc2)NC(=O)[C@H](CCN)NC1=O)[C@@H](C)O [polymyxin B] (X1-[Dab]T[Dab][Dab][Dab][dF]L[Dab][Dab]T; lactam 4-C (inferred); N-terminus assumed)
- Minimal Inhibitory Concentration, A. baumannii ATCC 19606 [1]: 0.25 µmol/L
- Kind of anti-infective activity against A. baumannii in skin abscess (A. baumannii ATCC 19606; single dose at MIC on the infected area, two days post-infection): bactericidal activity
- Reduction of CFU counts compared to the untreated control (A. baumannii ATCC 19606; skin abscess, A. baumannii, single dose at MIC, four days post-infection): 1–2 orders of magnitude
